Laboratory results published in PubChem BioAssay (NCI).
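Briefly, cells in 96-well plates were exposed to five compound concentrations for 48 h, and endpoints were estimated by linear interpolation. TGI denotes the concentration required for complete inhibition of growth.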 Where a SMILES comes first, the peptide text is derived from it. Bridges are numbered along the chain shown (N, C = ends). The star is where a group is joined. Cbz = O=C(OCc1ccccc1)*

Tests used:
Assay in all cases: inhibition of tumour cell growth, NCI panel, 48 h
[1] = system: SN12C renal
[2] = system: SNB-19 CNS
[3] = system: NCI-H23 lung
[4] = system: KM12 colon
[5] = system: UACC-62 melanoma
[6] = system: OVCAR-5 ovarian
[7] = system: OVCAR-4 ovarian
[8] = system: SW-620 colon
[9] = system: MCF7 breast
[10] = system: SK-MEL-2 melanoma
[11] = system: U251 CNS
[12] = system: BT-549 breast

SMILES	TGI [1] [µM]	TGI [2] [µM]	TGI [3] [µM]	TGI [4] [µM]	TGI [5] [µM]	TGI [6] [µM]	TGI [7] [µM]	TGI [8] [µM]	TGI [9] [µM]	TGI [10] [µM]	TGI [11] [µM]	TGI [12] [µM]
CCOP(=O)(OCC)C1(O)CC(n2cc(C)c(=O)[nH]c2=O)OC1CO (stereo not drawn)	> 100	> 100	> 100	> 100	> 100	> 100	> 100	> 100	> 100	> 100	> 100	
CCNc1ncnc2c1nnn2CC	> 100	> 100	> 100	> 100	> 100		> 100	> 100	> 100	> 100	> 100	
CSc1nc(C#N)c(N)n1C	> 100	> 100	> 100	> 100	> 100	> 100	> 100	> 100		> 100	> 100	> 100
CC(=O)Nc1ccc(C(=O)N2N=C(C)/C(=C/c3cccc([N+](=O)[O-])c3)C2=O)cc1	> 100	> 100	> 100	> 100		> 100	> 100	> 100				
CN(/N=N/c1nc[nH]c1C(N)=O)C1CCCCC1	> 100	> 100	> 100	> 100	> 100	> 100	> 100	> 100		> 100	> 100	
O=C(N/N=C/c1ccc(Cl)cc1)c1cc(I)cc(I)c1O	> 100	> 100	> 100	> 100		> 100	> 100	> 100	> 100	> 100	> 100	> 100
C=CCC1(CC)C(=O)NC(=O)NC1=O	> 100	> 100	> 100	> 100	> 100			> 100			> 100	
Oc1ccc(Cl)cc1C1=N/C(=N\C/N=C2\N=C(c3cc(Cl)ccc3O)CC(c3ccccc3)N2)NC(c2ccccc2)C1 (stereo not drawn)		> 100	> 100	> 100	> 100	> 100	> 100	> 100	> 100	> 100	> 100	> 100
CC(=O)O[C@H]1CN(S(=O)(=O)c2ccc(C)cc2)C[C@@H]1C1CCCCC1		> 100	> 100	36.3	61.7	> 100	> 100	> 100	42.6	37.7	> 100	
COc1cccc(NC(=O)CC(=O)NNCC(=O)Nc2nnc(-c3ccc(N(CCC#N)S(=O)(=O)c4ccccc4)cc3)s2)c1	> 100	> 100	> 100	> 100	> 100	> 100	> 100	> 100		> 100	> 100	
C=C(Br)CNCC(=C)Br	> 100	> 100	> 100	> 100	> 100	> 100	> 100	> 100	> 100	> 100	> 100	
CC(=O)c1ccc(N2CCN(C3=CC(=O)c4c(O)ccc(O)c4C3=O)CC2)cc1		> 100	> 100	> 100	> 100	> 100	> 100	> 100	> 100		50.3	
CC(C)=Nn1cnc(C(=N)C#N)c1N		> 100	> 100		> 100	> 100	> 100	> 100	> 100	> 100	> 100	> 100
CC1C2CC(C/C2=N/O)C1(C)C (stereo not drawn)	> 100	> 100	> 100	> 100	> 100	> 100	> 100	> 100	> 100		> 100	> 100
Cc1cc(S(=O)(=O)Nc2nc3ccccc3n2-c2ccccc2)c(S)cc1Cl		> 100		> 100	> 100	> 100	> 100	> 100	> 100	> 100	> 100	> 100
Cc1occ2c1C(=O)CC1C2[C@@H](O)CC2C(C)(C)CCC[C@]12C (stereo partly drawn)	> 100	> 100	> 100		> 100		> 100	> 100			> 100	

SMILES	TGI [1] [µM]	TGI [2] [µM]	TGI [3] [µM]	TGI [4] [µM]	TGI [5] [µM]	TGI [6] [µM]	TGI [7] [µM]	TGI [8] [µM]	TGI [9] [µM]	TGI [10] [µM]	TGI [11] [µM]	TGI [12] [µM]
COP(=O)(OC)C(NC=O)P(=O)(OC)OC	> 100	> 100	> 100		> 100		> 100	> 100	> 100		> 100	> 100
CCC(=O)NC(OCC1(CC)COC1)(C(F)(F)F)C(F)(F)F	> 100	> 100	> 100	> 100	> 100	> 100			> 100	> 100	> 100	> 100
C#CCSc1nc(N)c2ncn(C3OC(COP(=O)(O)O)C(O)C3O)c2n1 (stereo not drawn)	> 239	> 239	> 239	> 239	> 239	> 239	> 239	> 239		> 239		
COc1cc(/C=N\NC(=O)C[N+](C)(C)C)cc(OC)c1OC	> 10	> 10	> 10	> 10	> 10	> 10	> 10	> 10	> 10		> 10	> 10
COC(=O)C1CCCCNC(=O)CCC(NC(=O)OCc2ccccc2)C(=O)N1 (stereo not drawn) (Cbz-Glu-Lys-OMe; lactam 1-2; configuration not given here)	> 100	> 100	> 100	> 100	> 100	> 100	> 100	> 100	> 100	> 100	> 100	
Cn1c2c(c3ccccc31)CCN1C(=O)C3SC21C1C(=O)N(c2ccccc2)C(=O)C31 (stereo not drawn)	> 100	> 100	> 100	> 100	> 86.3	> 100	> 100	> 100	> 100		> 100	> 100
O=c1[nH]c2cc3cccnc3c(Cl)c2nc1CBr	27	19.7	32.2	33.3	25.2	35.9	34.2	32.5	29.2		32.4	89.8
Clc1nc(Nc2nc3ccccc3[nH]2)nc(Cl)c1Cc1ccccc1	> 100	> 100	> 100	> 100	> 100	> 100	> 100	> 100		> 100	> 100	> 100
COc1cc(OC)cc(-n2c(N)c(-c3nc4ccccc4n3C)c3ccc([N+](=O)[O-])cc3c2=O)c1	> 100	> 100	> 100	> 100	> 100		88.4	> 100		> 100	> 100	> 100
O/N=C1\CCc2nonc2\C1=N/Nc1ccccc1	> 100	> 100	> 100	> 100	> 100	> 100	> 100	> 100		> 100	> 100	
Cc1ccc(SC[C@@]2(C(F)F)NC(=O)NC2=O)cc1		> 100	> 100	> 100	> 100	> 100	> 100	> 100		> 100	> 100	> 100
CC1=C[C@@H](C)C[C@]2(C)CC[C@H](O2)[C@]23CC[C@](C)(C[C@H](O2)[C@@H]2O[C@@](C)(CC2=O)[C@@H](O)[C@H]2CC[C@@]4(CCC[C@@H](O4)[C@H](C)C(=O)O[C@H]4C[C@H]([C@]5(O)OCC[C@H](C)[C@@H]5O)O[C@H]4C=C1)O2)O3			0.0826	> 10		> 10		> 10	> 10	> 10	> 10	0.0103
COC(=O)C1=C(C)N(NC(=O)c2ccccc2)C2(O)CCCC(=O)C12C (stereo not drawn)	> 100	> 100	> 100	> 100	> 100	> 100	> 100	> 100		> 100	> 100	
CNC(=S)N/N=C(\C)c1nc2ncccc2[nH]1	> 100	> 100		> 100		> 100	> 100	> 100	> 100	> 100	> 100	99.5
O=c1[nH]cnc2sc(=S)c3c(c12)CCC3	> 100	> 100	62.8	> 100	> 100	> 100	> 100	49.2	> 100	> 100	> 100	
